# Source: article PMC9507378 (Advanced Science, 2022)
# Tests used:
# [1] = test system: SCF production in OP9 cells; assay: SCF expression (immunofluorescence, Western blot); type: cell-based; conditions: 25 µg mL^−1 5-FU, 24 h; n = 3
# Protocol: staining buffer (2% FBS in PBS), then immunofluorescent staining was performed for later flow cytometry (PE anti-γ-H2AX, Biolegend, 1:20).
# Western blotting: The total protein was extracted using Total Protein Extraction Kit (KeyGEN, Jiangsu, China) according to the standard protocol. After protein extraction and boiling denaturation, the proteins were separated using 10-15% SDS-PAGE and transferred to PVDF membranes. Then the samples were blocked with blocking buffer (QuickBlock™ Blocking Buffer, Beyotime Biotechnology, Shanghai, China) for 15min, and then incubated with related primary antibodies (anti-GAPDH, CST, 1:1000; anti-Bcl-2, CST, […]; anti-Bax, CST; anti-Caspase-3, […]
# 1:500; anti-γ-H2AX, abcam, 1:5000) overnight at 4 ℃. At the second day, the samples were incubated with related secondary antibodies for 1h and detected using Gel & Blot Imaging system (ChemiDoc MP, Bio-Rad, USA). […]
# another 24-h 5-FU treatment. […] Finally, the samples were detected using fluorescence confocal microscope (FV3000, Olympus, Japan).
# Plasma pharmacokinetics: Plasma pharmacokinetics experiment was performed to investigate the in vivo metabolism of tFNAs and OGP-tFNAs. tFNAs-Cy5 and OGP-tFNAs-Cy5 were administrated via tail vein injection. […] Finally, the blood samples were detected using the channel of Cy5 fluorescence of Gel & Blot Imaging system (ChemiDoc MP, Bio-Rad, USA). […]
# [2] = test system: OP9 cells; assay: CCK-8 cell viability assay; type: cell-based; conditions: 48 h, CCK-8, n = 6, tested 6.25 to 100 µg mL^−1, read-out: concentration showing the median inhibitory effect on OP9 cells
# Protocol: macropinocytosis, actin microfilament, and microtubule. The OP9 cells were pretreated with five inhibitors separately in 2% FBS culture media for 1 h, then the culture media was replaced with new culture media simultaneously containing OGP-tFNAs-Cy5 and different inhibitors for another 6 h. After that, the samples were collected for flow cytometric analysis and confocal microscopy observation for fluorescence intensity detection.
# Cell viability assay: Cell Counting Kit-8 (CCK-8) assay was applied to detect the cell viability after treatment with tFNAs, OGP and OGP-tFNAs with different […]
# Cell cycle, senescence and apoptosis detection: Cell cycle and apoptosis were detected via flow cytometric analysis. […]
# treatment (25 μg/mL). The cell cycle was detected using cell cycle detection Kit (KeyGEN, Jiangsu, China). […] After that, the samples were rinsed with PBS and incubated with RNase for 30 min in 37℃ water-bath, then incubated with Propidium Iodide (PI) for 30min and detected via flow cytometry. The cell apoptosis was detected using Annexin V-FITC/PI apoptosis detection kit (KeyGEN, Jiangsu, China).
# After the cells were collected and resuspended with 500 μL binding buffer, 5 μL Annexin V-FITC and 5 μL PI were added into the binding buffer. After 5-15 min incubation, the samples were detected via flow cytometry. […]
# [3] = test system: OP9 cells; assay: Apoptosis by flow cytometry (Annexin V-FITC/PI); type: cell-based; conditions: 5-FU group, 25 µg mL^−1, 24 h
# Protocol: Cell cycle, senescence and apoptosis detection: Cell cycle and apoptosis were detected via flow cytometric analysis. OP9 cells were cultured in 6-well plates and
# treatment (25 μg/mL). […] The cell apoptosis was detected using Annexin V-FITC/PI apoptosis detection kit (KeyGEN, Jiangsu, China).
# [4] = test system: OP9 cells; assay: Cellular internalization mechanism of OGP-tFNAs with endocytosis inhibitors; type: cell-based; conditions: 1 h inhibitor pretreatment in 2% FBS medium then 6 h with OGP-tFNAs-Cy5, 20 μM for Dynasore and Cytochalasin D, flow cytometry, n = 3
# Protocol: Cell culture and treatment: Bone marrow stromal OP9 cells were purchased from
# National Collection of Authenticated Cell Cultures (Shanghai, China). The cells were
# cultured in α-MEM with 1% penicillin-streptomycin and 20% FBS at 37 ° C in 5%
# CO2. When the cell intensity approached 80%-90%, OP9 cells were recultivated in
# internalization of tFNAs, and the influence of tFNAs as drug carriers on the cellular
# labeled with FITC fluorescence. After the cells were treated with tFNAs-Cy5 and
# harvested for flow cytometric analysis (Attune® NxT, Invitrogen, USA) and confocal
# fluorescence microscopy observation (FV3000, Olympus, Japan).
# (Methyl-β-cyclodextrin, MedChemExpress, USA; Dynasore, MedChemExpress, USA;
# Nocodazole, MedChemExpress, USA; Amiloride hydrochloride, Abcam, USA;
# Cytochalasin D, Abcam, USA) were used to inhibit the clathrin, caveolae,
# [5] = test system: ICR mice; conditions: mouse, in vivo, ip, 150 mg/kg
# Protocol: 6–8 weeks male ICR mice (Dossy Experimental Animals Co, Ltd., Chengdu, China) were raised in specific pathogen‐free (SPF) environment with stable temperature and 12 h light/dark cycle.
# Myelosuppression induction and systematic drug delivery: The mice were divided
# into five groups: 1) Control group; 2) Saline + myelosuppression group; 3) tFNAs +
# myelosuppression group. For myelosuppression groups, the mice were continuously
# intraperitoneal injection (i.p.) for 3 days (days 4-6) for myelosuppression induction.
# For normal group, the same volume of saline was delivered via tail intravenous
# injection at days 1-9 and PBS via intraperitoneal injection at days 4-6. At day 10, all
# the mice were sacrificed for later detections.
# Histological detections: As main hematopoietic organs, femurs and sternums were
# collected and fixed in 4% paraformaldehyde. After decalcification for 3-4 weeks in
# EDTA decalcifying solution (Servicebio, Wuhan, China), the samples were
# dehydrated and embedded in paraffin. Then, the samples were coronally sectioned
# along the long axis of the femurs and sternums, then Hematoxylin-Eosin (H&E)
# staining was performed to observe the histological changes. Meanwhile, as major
smiles,measurement,setting,value
"O=c1[nH]cc(F)c(=O)[nH]1 [5-FU, 5‐fluorouracil]",reduction of SCF production in OP9 cells,[1],≈ 50%
same,IC50,[2],25 µg/mL
same,number of dead OP9 cells,[3],≈ 30%
C=C1[C@@H](C)[C@H]2[C@H](Cc3ccccc3)NC(=O)[C@]23[C@H](OC(C)=O)/C=C/[C@@](C)(O)C(=O)[C@@H](C)C/C=C/[C@H]3[C@@H]1O [Cytochalasin D],inhibition of internalization of OGP-tFNAs,[4],more significant inhibition ratios
O=C(N/N=C/c1ccc(O)c(O)c1)c1cc2ccccc2cc1O [Dynasore],inhibition of internalization of OGP-tFNAs,[4],more significant inhibition ratios
O=P1(N(CCCl)CCCl)NCCCO1 (stereo not drawn) [cyclophosphamide],share of the bone marrow cavity filled by bone marrow cells,[5],20–30%
